Laboratory results: patent US20250009709A1, “PRENYLATED CHALCONE AND FLAVONOID COMPOSITIONS FOR USE IN TREATING CANCER” (INNOX CORP., priority 2021, published 2025)

Test system: pCrkl
Experiment: pCrkl level in K562-IS cells
Format: cell-based
Conditions: 1000 nM imatinib, data not shown
Description: The effect of the drug substance on chronic myelogenous leukemic (CML) cells was tested using a K562 cell line model.

Structure (SMILES): Cc1ccc(NC(=O)c2ccc(CN3CCN(C)CC3)cc2)cc1Nc1nccc(-c2cccnc2)n1 [imatinib]
- pCrkl level in comparison with non-treated controls: did not significantly change
